SMILES strings stand for the structures.

For this assay, the target named is CDK2 (human) (UniProt P24941). The assay can be described thus: Enzyme Assay.
Turning to `CN(C)CCNc1nnc(Nc2n[nH]c3ccccc23)cc1-c1ccc2[nH][nH]c(=O)c2c1Cl`, the Ki – broadly, a dissociation constant, usually derived from enzyme kinetics or from competition with a known ligand – is under 1000 nM. `O=c1[nH][nH]c2cc(NC3CCCC(Nc4ccccn4)C3)ccc12` (stereo not given): the Ki is under 1000 nM. For `O=c1[nH][nH]c2cc(Cl)c(-c3cc(C4CCCCC4)nc(Nc4n[nH]c5ccccc45)n3)cc12`, the Ki was under 1000 nM. To `O=c1[nH][nH]c2ccc(-c3nc(Nc4n[nH]c5ccccc45)cc(-c4cnc[nH]4)n3)c(C(F)(F)F)c12` belongs under 1000 nM; to `Cc1nc(Sc2ccc3c(=O)[nH][nH]c3c2)nc(Nc2cc(C3CC3)[nH]n2)c1C`, under 1000 nM. Next, `O=c1[nH][nH]c2cc(SCCCNc3cc(C4CC4)[nH]n3)ccc12`: under 1000 nM; `O=c1[nH][nH]c2ccc(-c3nc(Nc4n[nH]cc4-c4ccccc4)c4ccccc4n3)c(C(F)(F)F)c12`: under 1000 nM.

For `CC(=O)Nc1cccc(-c2cc(Nc3cc(C)[nH]n3)nc(Sc3ccc4c(=O)[nH][nH]c4c3)n2)c1`, the Ki is under 1000 nM.

Compound `NC1CCCCC1c1cc(Nc2n[nH]c3ccccc23)nc(-c2ccc3[nH][nH]c(=O)c3c2C(F)(F)F)n1` (stereo not given) registered a Ki of under 1000 nM. Next, `Cc1cnc(NCCC(=O)Oc2ccc3c(=O)[nH][nH]c3c2)s1`: under 1000 nM. With `O=C(CC(=O)Oc1ccc2c(=O)[nH][nH]c2c1)Nc1cc(C2CC2)[nH]n1`, the Ki was under 1000 nM. To `CN1CCN(c2cc(Nc3cc(C4CC4)[nH]n3)nc(Oc3ccc4c(=O)[nH][nH]c4c3)n2)CC1` belongs under 1000 nM; to `Cn1cnc(NC(CCCc2ccc3c(=O)[nH][nH]c3c2)c2ccccc2)c1` (stereo not given), under 1000 nM. The compound `O=c1[nH][nH]c2cc(OCCONc3nccnn3)ccc12` came in with a Ki of under 1000 nM. Turning to `Cc1cc(Nc2nc(-c3cc4c(=O)[nH][nH]c4cc3-c3ccccc3)nc3ccccc23)n[nH]1`, the Ki is under 1000 nM. Next, `Cc1cc(Nc2nc(C3(c4ccc5c(=O)[nH][nH]c5c4)CC3)nc3ccccc23)n[nH]1`: under 1000 nM; `O=c1[nH][nH]c2cc(C(F)(F)F)c(-c3cc(-c4ccccc4)cc(Nc4n[nH]c5ccccc45)n3)cc12`: under 1000 nM. Next, `Cc1cc(Nc2nc(Sc3ccc4c(=O)[nH][nH]c4c3)nc3cc(OCCCN(C)C)ccc23)n[nH]1`: under 1000 nM; `O=c1[nH][nH]c2cc(NC3CCCC(Nc4cc(C5CC5)[nH]n4)C3)ccc12` (stereo not given): under 1000 nM. Next, `O=c1[nH][nH]c2cc(OCC3CCCC3Nc3ccccn3)ccc12` (stereo not given): under 1000 nM.

Turning to `Cc1cc(Nc2nc(COc3ccc4[nH][nH]c(=O)c4c3)nc3c2CCCC3)n[nH]1`, the Ki is under 1000 nM. To `Cc1cnc(NCCCCc2ccc3c(=O)[nH][nH]c3c2)s1` belongs under 1000 nM; to `O=c1[nH][nH]c2ccc(-c3nc4c(c(Nc5n[nH]c6ccc(F)cc56)n3)CCC4)c(C(F)(F)F)c12`, under 1000 nM; to `O=c1[nH][nH]c2cc(Sc3nc(Nc4cc(C5CC5)[nH]n4)c4ccccc4n3)ccc12`, under 1000 nM. Next, `Cc1cc(Nc2cc(COc3ccc4c(=O)[nH][nH]c4c3)nc3c2CCCC3)n[nH]1`: under 1000 nM. To `O=c1[nH][nH]c2cc(Nc3nc(Nc4ccc5c(=O)[nH][nH]c5c4)c4ccccc4n3)ccc12` belongs under 1000 nM; to `O=c1[nH][nH]c2cc(CCCC(Nc3cc(C4CC4)[nH]n3)c3ccccc3)ccc12` (stereo not given), under 1000 nM. Consider `Cn1cnc(NC2CCC(COCc3ccc4c(=O)[nH][nH]c4c3)C2)c1` (stereo not given), for which the Ki is under 1000 nM.

Consider `Cc1cc(Nc2cc(-c3ccco3)[nH]n2)nc(Nc2ccc3c(=O)[nH][nH]c3c2)n1`, for which the Ki is under 1000 nM.

`O=c1[nH][nH]c2ccc(-c3cc(Nc4n[nH]c5c(F)cc(F)cc45)c4ccccc4n3)c(C(F)(F)F)c12` had a Ki of under 1000 nM. Consider `COCc1cc(Nc2nc(-c3ccc4[nH][nH]c(=O)c4c3C(F)(F)F)nc3ccccc23)n[nH]1`, for which the Ki is under 1000 nM. For `COc1ccc(-c2cc(Nc3cc(C)[nH]n3)nc(Sc3ccc4c(=O)[nH][nH]c4c3)n2)cc1`, the Ki is under 1000 nM. To `Cc1cc(Nc2nc(Sc3ccc4c(=O)[nH][nH]c4c3)nc3cc(O)ccc23)n[nH]1` belongs under 1000 nM.

On to `Cc1c(Nc2n[nH]c3ccccc23)nc(-c2cc3c(=O)[nH][nH]c3cc2Cl)nc1N1CCOCC1`, for which the Ki was under 1000 nM. To `O=c1[nH][nH]c2cc(OCCCNc3cc(C4CC4)[nH]n3)ccc12` belongs under 1000 nM; to `CCc1cc(Nc2cc(C)[nH]n2)nc(C(C)(C)c2ccc3c(=O)[nH][nH]c3c2)n1`, under 1000 nM; to `O=c1[nH][nH]c2cc(Nc3ncc(N4CCOCC4)c(Nc4cc(C5CC5)[nH]n4)n3)ccc12`, under 1000 nM. In turn, `O=c1[nH][nH]c2cc(CCCONc3nccnn3)ccc12` had a Ki of under 1000 nM.

`Cc1cc(Nc2nc(Sc3ccc4c(=O)[nH][nH]c4c3)nc3c(O)cccc23)n[nH]1` showed a Ki of under 1000 nM. Regarding `O=c1[nH][nH]c2cc(Nc3ncc(Nc4ccccc4)c(Nc4cc(C5CC5)[nH]n4)n3)ccc12`, the Ki is under 1000 nM. Next, `CCCCOC(=O)c1cc(Nc2cc(C)[nH]n2)nc(Sc2ccc3c(=O)[nH][nH]c3c2)n1`: under 1000 nM; `Cc1cc(Nc2cc(Oc3ccc4c(=O)[nH][nH]c4c3)nc3ccccc23)n[nH]1`: under 1000 nM. As for `COCCNc1cc(Nc2cc(C)[nH]n2)nc(OCc2ccc3c(=O)[nH][nH]c3c2)n1`, the Ki was under 1000 nM. As for `O=C(NC1CCCCC1)c1cc(Nc2nc(-c3ccc4[nH][nH]c(=O)c4c3)nc3ccccc23)n[nH]1`, the Ki was under 1000 nM. To `Cc1cnc(NOCCOc2ccc3c(=O)[nH][nH]c3c2)s1` belongs under 1000 nM; to `Nc1ncc2c(Nc3n[nH]c4ccccc34)nc(-c3ccc4[nH][nH]c(=O)c4c3C(F)(F)F)nc2n1`, under 1000 nM; to `O=c1[nH][nH]c2cc(COCc3cc4ccccc4c(Nc4cc(C5CC5)[nH]n4)n3)ccc12`, under 1000 nM.

Take `O=c1[nH][nH]c2ccc(-c3cc4ccccc4c(Nc4n[nH]c5c(F)cc(F)cc45)n3)c(C(F)(F)F)c12`: the Ki is under 1000 nM. To `Cc1cc(Nc2nc(Sc3ccc4c(=O)[nH][nH]c4c3)nc3ccccc23)n[nH]1` belongs under 1000 nM; to `Cn1cnc(NC2CCCC2COc2ccc3c(=O)[nH][nH]c3c2)c1` (stereo not given), under 1000 nM; to `Cn1cnc(NC(=O)CCNc2ccc3c(=O)[nH][nH]c3c2)c1`, under 1000 nM. In turn, `O=c1[nH][nH]c2cc(Oc3nccc(Nc4cc(C5CC5)[nH]n4)n3)ccc12` yielded a Ki of under 1000 nM. For `Cc1cc(Nc2nc(Nc3ccc4c(=O)[nH][nH]c4c3)nc3ccc(-c4ccccc4Cl)cc23)n[nH]1`, the Ki was under 1000 nM. For `O=c1[nH][nH]c2cc(CCC3COCC(Nc4ccccn4)C3)ccc12` (stereo not given), the Ki is under 1000 nM. Next, `COCc1cc(Nc2nc(Nc3ccc4c(=O)[nH][nH]c4c3)nc3ccccc23)n[nH]1`: under 1000 nM; `CN1CCC(OCc2cc(Nc3cc(C4CC4)[nH]n3)nc(Sc3ccc4c(=O)[nH][nH]c4c3)n2)CC1`: under 1000 nM; `O=c1[nH][nH]c2cc(OC3CCCC(Nc4ccccn4)C3)ccc12` (stereo not given): under 1000 nM. To `Cn1cnc(NC(=O)CCOc2ccc3c(=O)[nH][nH]c3c2)c1` belongs under 1000 nM. Next, `O=c1[nH][nH]c2cc(Nc3cc(Nc4n[nH]c5ccccc45)c4ccccc4n3)ccc12`: under 1000 nM. The compound `Cc1cc(Nc2nc(NCc3ccc4c(=O)[nH][nH]c4c3)cc3ccccc23)n[nH]1` yielded a Ki of under 1000 nM. `O=c1[nH][nH]c2cc(SCC3CCCC3Nc3ccccn3)ccc12` (stereo not given) yielded a Ki of under 1000 nM. Next, `Cn1cnc(NC2CCCC2CNc2ccc3c(=O)[nH][nH]c3c2)c1` (stereo not given): under 1000 nM; `Cc1cnc(Nc2cccc(Nc3ccc4c(=O)[nH][nH]c4c3)c2)s1`: under 1000 nM. `O=c1[nH][nH]c2cc(NOCCNc3ccccn3)ccc12` came in with a Ki of under 1000 nM. Take `O=c1[nH][nH]c2ccc(-c3nnc(C4CCCCC4)c(Nc4n[nH]c5ccc(F)cc45)n3)c(C(F)(F)F)c12`: the Ki was under 1000 nM. The compound `CNC(=O)c1cc(Nc2cc(C)[nH]n2)nc(Sc2ccc3c(=O)[nH][nH]c3c2)n1` returned a Ki of under 1000 nM. `COCc1cc(Nc2cc(C)[nH]n2)nc(Nc2ccc3c(=O)[nH][nH]c3c2)n1`: the Ki is under 1000 nM. `Cc1cnc(NC(=O)CCNc2ccc3c(=O)[nH][nH]c3c2)s1` gave a Ki of under 1000 nM.

The compound `CCc1cc(Nc2nc(Nc3ccc4c(=O)[nH][nH]c4c3)nc3ccc(-c4ccccc4)cc23)n[nH]1` came in with a Ki of under 1000 nM. Next, `O=c1[nH][nH]c2ccc(-c3nc(Nc4cc(C5CCCC5)[nH]n4)c4ccccc4n3)cc12`: under 1000 nM; `O=c1[nH][nH]c2cc(OCCONc3cc(C4CC4)[nH]n3)ccc12`: under 1000 nM. To `Cc1cnc(NCCCSc2ccc3c(=O)[nH][nH]c3c2)s1` belongs under 1000 nM; to `Cc1cc(Nc2cnnc(-c3ccc4[nH][nH]c(=O)c4c3)c2)n[nH]1`, under 1000 nM; to `O=c1[nH][nH]c2cc(Oc3cccc(Nc4cc(C5CC5)[nH]n4)n3)ccc12`, under 1000 nM. To `CN(C)CCCOc1cc(Nc2cc(C3CC3)[nH]n2)nc(Sc2ccc3c(=O)[nH][nH]c3c2)n1` belongs under 1000 nM; to `O=c1[nH][nH]c2cc(SCC3CCCC3Nc3cc(C4CC4)[nH]n3)ccc12` (stereo not given), under 1000 nM.

On to `O=c1[nH][nH]c2cc([C@@H]3C[C@H]3c3nc(Nc4n[nH]c5ccc(F)cc45)c4ccccc4n3)ccc12`, for which the Ki was under 1000 nM.

Consider `O=C(CC(=O)Nc1nccnn1)Nc1ccc2c(=O)[nH][nH]c2c1`, for which the Ki is under 1000 nM.

For the compound `O=C(CCOc1ccc2c(=O)[nH][nH]c2c1)Nc1nccnn1`, the Ki is under 1000 nM. To `O=c1[nH][nH]c2ccc(-c3nc(Nc4n[nH]c5ccccc45)c4ccccc4n3)c([N+](=O)[O-])c12` belongs under 1000 nM; to `O=c1[nH][nH]c2cc(NCCCNc3ccccn3)ccc12`, under 1000 nM. As to `O=C(CC(=O)Nc1ccccn1)Nc1ccc2c(=O)[nH][nH]c2c1`, the Ki was under 1000 nM. To `Cc1cc(Nc2nc(Nc3ccc4c(=O)[nH][nH]c4c3)nc3cccc(C)c23)n[nH]1` belongs under 1000 nM; to `O=c1[nH][nH]c2ccc(-c3nc4c(c(Nc5n[nH]c6ccc(F)cc56)n3)CCNC4)c(C(F)(F)F)c12`, under 1000 nM; to `Cn1cnc(NCCC(Cc2ccccc2)Cc2ccc3c(=O)[nH][nH]c3c2)c1` (stereo not given), under 1000 nM.

The record behind these values is the Kinase Knowledgebase extract (Sharma et al. 2016).
